Literature values as cited in patent publication US20130178603A1, “MULTI-MODE CANCER TARGETED NANOPARTICULATE SYSTEM AND A METHOD OF SYNTHESIZING THE SAME” (priority 2012, published 2013).

Conditions: after I.V administration

## CN(Cc1cnc2nc(N)nc(N)c2n1)c1ccc(C(=O)N[C@@H](CCC(=O)O)C(=O)O)cc1 [MTX, methotrexate]
  mean distribution half-life: 1.5 to 3.5 h
